Measured values: patent US7084140B2, “Arylglycinamide derivatives, method of producing said derivatives and pharmaceutical compositions containing these compounds” (Boehringer Ingelheim Pharma GmbH & Co. KG, priority 1996, dated 2006)
Where a name gives a salt, the structure may show the parent alone.

Key:
NK1 = biological target: T1, NK1 (Cavia porcellus, UniProt P30547); experiment: Inhibition of lowering of blood pressure caused by NK1 in anaesthetised guinea pigs; type: in vivo; details: 1 mg/kg administered into the duodenum, NK1-agonist [βAla4, Sar9, Met(O2)11]SP(4-11) 0.2 μmol/kg i.v.
T1 construct: from tissue; host or cells: whole animal (anaesthetised guinea pig)
T1 sequence (P30547 whole entry): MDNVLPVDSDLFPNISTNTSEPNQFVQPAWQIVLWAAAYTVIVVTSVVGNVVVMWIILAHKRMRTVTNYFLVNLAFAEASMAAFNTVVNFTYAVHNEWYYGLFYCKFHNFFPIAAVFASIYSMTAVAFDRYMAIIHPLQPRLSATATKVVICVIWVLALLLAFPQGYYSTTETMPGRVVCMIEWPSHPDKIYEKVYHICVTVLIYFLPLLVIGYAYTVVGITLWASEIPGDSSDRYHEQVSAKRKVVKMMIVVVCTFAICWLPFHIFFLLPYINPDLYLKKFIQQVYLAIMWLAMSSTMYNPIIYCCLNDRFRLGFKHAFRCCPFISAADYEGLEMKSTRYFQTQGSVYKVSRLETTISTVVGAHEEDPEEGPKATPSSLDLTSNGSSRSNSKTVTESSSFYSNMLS
Method: Inhibition of lowering of blood pressure caused by NK1 in anaesthetised guinea pigs.
Guinea pigs weighing 300–500 grams were anaesthetised with pentobarbital (50 mg/kg i.p.), intubated and artificially ventilated. They were ventilated with 10 ml/kg of air at a frequency of 60 breaths per minute. The carotid artery was canulated and the arterial blood pressure was recorded. A polyethylene tube was inserted into the jugular vein for the intravenous supply of substances.
A temporary reduction in blood pressure was brought about at intervals of 10 minutes by intravenous administration of the NK1-agonist [βAla^4, Sar^9, Met (O2)^11]Sp(4-11)
[drawing 30] in a dose of 0.2 μmol/kg. After the blood pressure thus produced had been measured, the test compound was introduced into the duodenum and the NK1-agonist was again injected every 10 minutes.
The results were expressed as a % inhibition of the reduction in blood pressure caused by the NK1-agonist specified.

[1] = biological target: T2, NK1-receptor (substance P-receptor) (Homo sapiens, UniProt P25103); experiment: Receptor affinity for the NK1-receptor, displacement of 125I-labelled substance P on IM-9 cells; type: binding; details: human lymphoblastoma cells (IM-9) with cloned NK1-receptors
T2 construct: expressed in transfected cells; host or cells: IM-9 human lymphoblastoma cells
T2 sequence (P25103 whole entry): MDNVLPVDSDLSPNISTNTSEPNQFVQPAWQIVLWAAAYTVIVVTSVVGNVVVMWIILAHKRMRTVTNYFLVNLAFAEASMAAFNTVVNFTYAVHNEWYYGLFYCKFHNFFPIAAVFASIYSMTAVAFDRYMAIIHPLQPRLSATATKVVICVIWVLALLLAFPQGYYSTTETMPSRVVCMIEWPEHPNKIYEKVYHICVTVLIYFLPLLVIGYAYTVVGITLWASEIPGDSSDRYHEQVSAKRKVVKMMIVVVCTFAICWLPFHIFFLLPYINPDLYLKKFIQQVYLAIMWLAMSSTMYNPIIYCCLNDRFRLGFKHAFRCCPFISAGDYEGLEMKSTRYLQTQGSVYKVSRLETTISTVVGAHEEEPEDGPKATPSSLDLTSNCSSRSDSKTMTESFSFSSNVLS
Method: The receptor affinity for the NK1-receptor (substance P-receptor) is determined on human lymphoblastoma cells (IM-9) with cloned NK1-receptors, by measuring the displacement of ^125I-labelled substance P. The K1-values thus obtained show the efficacy of the compounds: […]

Structure (SMILES)	% inhibition of the reduction in blood pressure caused by the NK1-agonist (NK1) [%]	Ki [1] [nM]
CC(C)N1CCN(C(C(=O)N(C)CCc2cc(C(F)(F)F)cc(C(F)(F)F)c2)c2ccccc2)CC1 (racemic) [Example 1, (R,S)-1-i-propyl-4-[2-phenylacetic acid-N-methyl-N-(3,5-bistrifluoromethylphenylethyl)]-amide dihydrochloride]	80	1.2
CN(CCc1cc(C(F)(F)F)cc(C(F)(F)F)c1)C(=O)C(c1ccccc1)N1CCNCC1 (stereo not drawn) [Example 2]	–	1
CN(CCc1cc(C(F)(F)F)cc(C(F)(F)F)c1)C(=O)C(c1ccccc1)N1CCN(c2ncccn2)CC1 (stereo not drawn) [Example 3]	–	19
CN1CCCN(C(C(=O)N(C)CCc2cc(C(F)(F)F)cc(C(F)(F)F)c2)c2ccccc2)CC1 (stereo not drawn) [Example 4]	–	1.4
CN(CCc1cc(C(F)(F)F)cc(C(F)(F)F)c1)C(=O)C(c1ccccc1)N1CCC(N(C)C)CC1 (stereo not drawn) [Example 5]	–	1.5
CN1CCN(C2CCN(C(C(=O)N(C)CCc3cc(C(F)(F)F)cc(C(F)(F)F)c3)c3ccccc3)CC2)CC1 (stereo not drawn) [Example 8]	–	1.8
CN1CCC(N2CCN(C(C(=O)N(C)CCc3cc(C(F)(F)F)cc(C(F)(F)F)c3)c3ccccc3)CC2)CC1 (stereo not drawn) [Example 9]	–	2.5
CN(CCc1cc(C(F)(F)F)cc(C(F)(F)F)c1)C(=O)C(c1ccccc1)N1CCN(CC(=O)N2CCCC2)CC1 (stereo not drawn) [Example 11]	–	3.8
CN(CCc1cc(C(F)(F)F)cc(C(F)(F)F)c1)C(=O)C(c1ccccc1)N1CCC(N2CCN(CC(N)=O)CC2)CC1 (stereo not drawn) [Example 12]	–	5
CN(CCc1cc(C(F)(F)F)cc(C(F)(F)F)c1)C(=O)C(c1ccccc1)N1CCC(N2CCC(N3CCCCC3)CC2)CC1 (stereo not drawn) [Example 13]	–	2.4
CCN(CC)C1CCN(C(C(=O)N(C)CCc2cc(C(F)(F)F)cc(C(F)(F)F)c2)c2ccccc2)CC1 (stereo not drawn) [Example 15]	–	0.98
CN(CCc1cc(C(F)(F)F)cc(C(F)(F)F)c1)C(=O)C(c1ccccc1)N1CCC(N(C)CCO)CC1 (stereo not drawn) [Example 16]	–	0.9
CN(CCc1cc(C(F)(F)F)cc(C(F)(F)F)c1)C(=O)C(c1ccccc1)N1CCC(N)CC1 (stereo not drawn) [Example 17]	–	7.75
CNC1CCN(C(C(=O)N(C)CCc2cc(C(F)(F)F)cc(C(F)(F)F)c2)c2ccccc2)CC1 (stereo not drawn) [Example 18]	–	0.96
CN(CCc1cc(C(F)(F)F)cc(C(F)(F)F)c1)C(=O)C(c1ccccc1)N1CCC(NC2CCCC2)CC1 (stereo not drawn) [Example 19]	–	1.17
CC(C)NC1CCN(C(C(=O)N(C)CCc2cc(C(F)(F)F)cc(C(F)(F)F)c2)c2ccccc2)CC1 (stereo not drawn) [Example 20]	–	2
CN(CCc1cc(C(F)(F)F)cc(C(F)(F)F)c1)C(=O)C(c1ccccc1)N1CCC(O)CC1 (stereo not drawn) [Example 22]	–	2.2
CN(CCc1cc(C(F)(F)F)cc(C(F)(F)F)c1)C(=O)C(c1ccccc1)N1CCC(NCC(=O)N2CCOCC2)CC1 (stereo not drawn) [Example 23]	–	2.5

Structure (SMILES)	% inhibition of the reduction in blood pressure caused by the NK1-agonist (NK1) [%]	Ki [1] [nM]
C=CCN1CCN(C(C(=O)N(C)CCc2cc(C(F)(F)F)cc(C(F)(F)F)c2)c2ccccc2)CC1 (stereo not drawn) [Example 24]	–	2.2
C#CCN1CCN(C(C(=O)N(C)CCc2cc(C(F)(F)F)cc(C(F)(F)F)c2)c2ccccc2)CC1 (stereo not drawn) [Example 25]	–	6
CN(CCc1cc(C(F)(F)F)cc(C(F)(F)F)c1)C(=O)C(c1ccccc1)N1CCN(CCO)CC1 (stereo not drawn) [Example 26]	–	1.6
CN(C)CCN1CCN(C(C(=O)N(C)CCc2cc(C(F)(F)F)cc(C(F)(F)F)c2)c2ccccc2)CC1 (stereo not drawn) [Example 28]	–	1.3
COCCN1CCN(C(C(=O)N(C)CCc2cc(C(F)(F)F)cc(C(F)(F)F)c2)c2ccccc2)CC1 (stereo not drawn) [Example 30]	–	1.8
CC(C)N1CCN(C(C(=O)N(C)CCc2cc(C(F)(F)F)cc(C(F)(F)F)c2)c2ccccc2)CC1=O (stereo not drawn) [Example 32]	–	1.3
CC(C)N1CCN(C(C(=O)NC(C)(C)Cc2cc(C(F)(F)F)cc(C(F)(F)F)c2)c2ccccc2)CC1 (stereo not drawn) [Example 33]	–	7.4
CC(C)(Cc1cc(C(F)(F)F)cc(C(F)(F)F)c1)NC(=O)C(c1ccccc1)N1CCNCC1 (stereo not drawn) [Example 34]	–	2.9
COc1ccc(C(C(=O)N(C)CCc2cc(C(F)(F)F)cc(C(F)(F)F)c2)N2CCNCC2)cc1OC (stereo not drawn) [Example 47]	–	1.7
CN(CCc1cc(C(F)(F)F)cc(C(F)(F)F)c1)C(=O)C(c1ccccc1)N1CCC(N(CCO)CCO)CC1 (stereo not drawn) [Example 55]	–	1.25
CCCN1CCN(C(C(=O)N(C)CCc2cc(C(F)(F)F)cc(C(F)(F)F)c2)c2ccccc2)CC1 (stereo not drawn) [Example 63]	–	1.4
CN1CCN(C(C(=O)N(C)CCc2cc(C(F)(F)F)cc(C(F)(F)F)c2)c2ccccc2)CC1 (stereo not drawn) [Example 64]	–	1.1
COc1ccc(C(C(=O)N(C)CCc2cc(C(F)(F)F)cc(C(F)(F)F)c2)N2CCN(C(C)C)CC2)cc1OC (stereo not drawn) [Example 65]	–	5.7
CC(C)N1CCN(C(C(=O)N(C)CCc2cc(C(F)(F)F)cc(C(F)(F)F)c2)c2cccc3c2OCO3)CC1 (stereo not drawn) [Example 73]	–	2
CC(C)N1CCN(C(C(=O)N(C)CCc2cc(C(F)(F)F)cc(C(F)(F)F)c2)c2ccccc2)CC1 (stereo not drawn) [Example 74]	–	1.5
CN(CCc1cc(C(F)(F)F)cc(C(F)(F)F)c1)C(=O)[C@H](c1ccccc1)N1CCNCC1 [Example 75]	–	0.44
CN(CCc1cc(C(F)(F)F)cc(C(F)(F)F)c1)C(=O)C(c1ccccc1)N1CCC(N(C)CCCCO)CC1 (stereo not drawn) [Example 76]	–	2
